# Experimental data: paper PMC5298231, “The Malaria Parasite's Lactate Transporter PfFNT Is the Target of Antiplasmodial Compounds Identified in Whole Cell Phenotypic Screens” (PLoS Pathogens, 2017)
# Test system: erythrocytes infected with 3D7 trophozoites
# Format: cell-based, Plasmodium falciparum
# Details: Av 3hr; 6 μM
smiles,measurement,value
COc1ccc2c(c1)OC(O)(C(F)(F)C(F)(F)F)CC2=O (stereo not shown) [MMV007839],2-Hydroxyglutarate log2 ratio (+MMV007839/-MMV007839),-0.6103
same,2-Ketoglutarate log2 ratio (+MMV007839/-MMV007839),-0.8232
same,3-Phosho-D-glycerate log2 ratio (+MMV007839/-MMV007839),0.07426
same,3-Phospho-serine log2 ratio (+MMV007839/-MMV007839),-0.4035
same,4-Aminobutanoate log2 ratio (+MMV007839/-MMV007839),0.8488
same,5-Phosphoribosyl-1-pyrophosphate log2 ratio (+MMV007839/-MMV007839),0.5077
same,ADP log2 ratio (+MMV007839/-MMV007839),-0.7166
same,AMP log2 ratio (+MMV007839/-MMV007839),-0.5704
same,ATLS log2 ratio (+MMV007839/-MMV007839),-0.2347
same,ATP log2 ratio (+MMV007839/-MMV007839),-0.2177
same,Acetyl-CoA log2 ratio (+MMV007839/-MMV007839),-0.7235
same,Acetyl-L-alanine log2 ratio (+MMV007839/-MMV007839),-0.3599
same,Adenine log2 ratio (+MMV007839/-MMV007839),-0.8446
same,Arginine log2 ratio (+MMV007839/-MMV007839),0.2396
same,Asparagine log2 ratio (+MMV007839/-MMV007839),-0.1753
same,Aspartic Acid log2 ratio (+MMV007839/-MMV007839),-0.3736
same,CDP log2 ratio (+MMV007839/-MMV007839),-0.5752
same,CDP-ethanolamine log2 ratio (+MMV007839/-MMV007839),0.02366
same,CMP log2 ratio (+MMV007839/-MMV007839),-0.08882
same,CTP log2 ratio (+MMV007839/-MMV007839),-0.3119
same,Cholesteryl sulfate log2 ratio (+MMV007839/-MMV007839),-0.1335
same,Citrate log2 ratio (+MMV007839/-MMV007839),-0.1028
same,CoA log2 ratio (+MMV007839/-MMV007839),-0.556
same,Cyclic AMP log2 ratio (+MMV007839/-MMV007839),-0.7854
same,Cytidine log2 ratio (+MMV007839/-MMV007839),-0.2914
same,D-Glucono-1-4-lactone log2 ratio (+MMV007839/-MMV007839),1.992
same,DALT log2 ratio (+MMV007839/-MMV007839),-0.8981
same,DEVG log2 ratio (+MMV007839/-MMV007839),-0.08263
same,DGLA log2 ratio (+MMV007839/-MMV007839),-0.7349
same,DLS log2 ratio (+MMV007839/-MMV007839),-0.6175
same,Deoxycytidine log2 ratio (+MMV007839/-MMV007839),1.594
same,Dihydroorotate log2 ratio (+MMV007839/-MMV007839),-1.064
same,ESFG log2 ratio (+MMV007839/-MMV007839),-0.07747
same,EVGG log2 ratio (+MMV007839/-MMV007839),-0.1694
same,Erythrose 4-phosphate log2 ratio (+MMV007839/-MMV007839),-0.2579
same,FAD log2 ratio (+MMV007839/-MMV007839),-0.4239
same,FMN log2 ratio (+MMV007839/-MMV007839),-0.4985
same,Farnesyl diphosphate log2 ratio (+MMV007839/-MMV007839),-0.04123
same,Folate log2 ratio (+MMV007839/-MMV007839),-0.3602
same,Fructose-1-6-bisphosphate log2 ratio (+MMV007839/-MMV007839),1.146
same,Fructose-6-Phosphate log2 ratio (+MMV007839/-MMV007839),0.05598
same,GDP log2 ratio (+MMV007839/-MMV007839),-1.202
same,GDP-mannose log2 ratio (+MMV007839/-MMV007839),-0.4414
same,GMP log2 ratio (+MMV007839/-MMV007839),-1.665
same,GTP log2 ratio (+MMV007839/-MMV007839),-0.7051
same,Geranylgeranyl pyrophosphate log2 ratio (+MMV007839/-MMV007839),-0.6827
same,Gluconate log2 ratio (+MMV007839/-MMV007839),-0.02575
same,Glucose-6-Phosphate log2 ratio (+MMV007839/-MMV007839),-0.3489
same,Glutamate log2 ratio (+MMV007839/-MMV007839),-0.07518
same,Glutamine log2 ratio (+MMV007839/-MMV007839),0.8027
same,Glutathione disulfide log2 ratio (+MMV007839/-MMV007839),-0.1266
same,Glutathione log2 ratio (+MMV007839/-MMV007839),-0.02749
same,Glyceraldehyde 3-phosphate log2 ratio (+MMV007839/-MMV007839),-0.5897
same,Glycerone phosphate log2 ratio (+MMV007839/-MMV007839),0.4029
same,HLD log2 ratio (+MMV007839/-MMV007839),-0.9223
same,HVDD log2 ratio (+MMV007839/-MMV007839),-1.392
same,Histidine log2 ratio (+MMV007839/-MMV007839),0.6908
same,Homoserine log2 ratio (+MMV007839/-MMV007839),0.249
same,Hydroxy-L-proline log2 ratio (+MMV007839/-MMV007839),0.1081
same,Hypoxanthine log2 ratio (+MMV007839/-MMV007839),0.2683
same,IDP log2 ratio (+MMV007839/-MMV007839),0.1036
same,IMP log2 ratio (+MMV007839/-MMV007839),-0.04113
same,Inosine log2 ratio (+MMV007839/-MMV007839),0.2492
same,Isoleucine log2 ratio (+MMV007839/-MMV007839),0.01345
same,LD log2 ratio (+MMV007839/-MMV007839),0.008648
same,Lactate log2 ratio (+MMV007839/-MMV007839),2.632
same,Leucine log2 ratio (+MMV007839/-MMV007839),-0.1293
same,Lysine log2 ratio (+MMV007839/-MMV007839),0.8307
same,Malate log2 ratio (+MMV007839/-MMV007839),-0.2233
same,Mannitol log2 ratio (+MMV007839/-MMV007839),-0.2308
same,Methionine log2 ratio (+MMV007839/-MMV007839),-0.1652
same,Myristic acid log2 ratio (+MMV007839/-MMV007839),-0.3456
same,N-Acetyl-glutamate log2 ratio (+MMV007839/-MMV007839),-0.8123
same,N-Carbamoyl-L-aspartate log2 ratio (+MMV007839/-MMV007839),-1.502
same,NAD+ log2 ratio (+MMV007839/-MMV007839),0.03216
same,NADH log2 ratio (+MMV007839/-MMV007839),-1.72
same,NADP+ log2 ratio (+MMV007839/-MMV007839),-0.3346
same,Octoluse Bisphosphate log2 ratio (+MMV007839/-MMV007839),1.811
same,Ornithine log2 ratio (+MMV007839/-MMV007839),-0.1015
same,Orotate log2 ratio (+MMV007839/-MMV007839),-1.466
same,Orotidine 5-phosphate log2 ratio (+MMV007839/-MMV007839),-1.489
same,Orotidine log2 ratio (+MMV007839/-MMV007839),-1.057
same,PAEF log2 ratio (+MMV007839/-MMV007839),-1.307
same,PAVH log2 ratio (+MMV007839/-MMV007839),-1.929
same,PD log2 ratio (+MMV007839/-MMV007839),0.2119
same,PDAV log2 ratio (+MMV007839/-MMV007839),0.3685
same,PE log2 ratio (+MMV007839/-MMV007839),0.9141
same,PEE log2 ratio (+MMV007839/-MMV007839),-0.2135
same,PHF log2 ratio (+MMV007839/-MMV007839),0.05129
same,PPVQ log2 ratio (+MMV007839/-MMV007839),-0.3492
same,PVNF log2 ratio (+MMV007839/-MMV007839),-0.8559
same,PVQ log2 ratio (+MMV007839/-MMV007839),0.3164
same,PVQA log2 ratio (+MMV007839/-MMV007839),-1.408
same,Pantothenate log2 ratio (+MMV007839/-MMV007839),-0.2954
same,Phenylalanine log2 ratio (+MMV007839/-MMV007839),-0.1326
same,Phosphoenolpyruvate log2 ratio (+MMV007839/-MMV007839),0.2604
same,Pipecolate log2 ratio (+MMV007839/-MMV007839),0.1041
same,Proline log2 ratio (+MMV007839/-MMV007839),-0.09895
same,Pyridoxine log2 ratio (+MMV007839/-MMV007839),-0.07403
same,Pyruvate log2 ratio (+MMV007839/-MMV007839),1.858
same,Ribose-5-phosphate log2 ratio (+MMV007839/-MMV007839),0.8813
same,S-Adenosyl-L-homocysteine log2 ratio (+MMV007839/-MMV007839),-0.314
same,SDGLA log2 ratio (+MMV007839/-MMV007839),-0.3844
same,SFGD log2 ratio (+MMV007839/-MMV007839),-0.2955
same,Sedoheptoluse bisphosphate log2 ratio (+MMV007839/-MMV007839),-0.1481
same,Sedoheptulose-1/7-phosphate log2 ratio (+MMV007839/-MMV007839),0.2199
